Assay results as given in ChEMBL document CHEMBL3396988, “Structure-based design of inhibitors of coagulation factor XIa with novel P1 moieties” (Bioorg Med Chem Lett, 2015).

Tests used:
Coagulation factor XI [1] = target: T1, Coagulation factor XI (Homo sapiens, UniProt P03951); assay: Inhibition of human coagulation factor 11a at 25 degC
Trypsin = Trypsin (Homo sapiens, UniProt P07477+P07478+P35030); assay: Inhibition of human trypsin at 25 degC; format: protein assay
[2] = Clearance in dog at 0.5 mg/kg, po or 0.4 mg/kg, iv administered in cassette format; format: ADME, organism-based, Canis lupus familiaris; conditions: in vivo
[3] = Volume of distribution at steady state in dog at 0.5 mg/kg, po or 0.4 mg/kg, iv administered in cassette format; format: ADME, organism-based, Canis lupus familiaris; conditions: in vivo, read-out: Vdss
[4] = Half life in dog at 0.5 mg/kg, po or 0.4 mg/kg, iv administered in cassette format; format: ADME, organism-based, Canis lupus familiaris; conditions: in vivo
[5] = Oral bioavailability in dog at 0.5 mg/kg administered in cassette format; format: ADME, organism-based, Canis lupus familiaris; conditions: in vivo
Plasma = assay: Anticoagulant activity in human plasma assessed as compound level causing 1.5 times increase in activated partial […] time; format: functional
[6] = Half life in human liver microsomes; format: ADME
Coagulation factor XI [7] = target: T1, Coagulation factor XI; assay: Inhibition of human coagulation factor 11a at 37 degC
[8] = Permeability of the compound at pH 7.4 by PAMPA method; format: ADME; conditions: read-out: permeability
Coagulation factor VII = target: T2, Coagulation factor VII (Homo sapiens, UniProt P08709); assay: Inhibition of coagulation factor 7a (unknown origin)
T2 sequence (P08709 whole entry): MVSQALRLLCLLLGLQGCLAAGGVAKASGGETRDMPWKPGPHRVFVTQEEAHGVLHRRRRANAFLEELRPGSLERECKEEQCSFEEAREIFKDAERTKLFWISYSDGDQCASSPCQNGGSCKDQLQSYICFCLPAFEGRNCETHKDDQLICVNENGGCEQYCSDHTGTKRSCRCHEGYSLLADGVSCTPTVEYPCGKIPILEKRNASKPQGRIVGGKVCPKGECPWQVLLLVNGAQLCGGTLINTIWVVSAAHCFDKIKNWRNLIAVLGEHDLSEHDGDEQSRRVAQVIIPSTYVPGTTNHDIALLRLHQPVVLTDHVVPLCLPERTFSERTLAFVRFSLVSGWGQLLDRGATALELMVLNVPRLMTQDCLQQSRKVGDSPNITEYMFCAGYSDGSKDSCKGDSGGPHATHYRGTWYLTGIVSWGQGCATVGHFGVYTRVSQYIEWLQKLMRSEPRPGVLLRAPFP

Coagulation factor IX = Coagulation factor IX (Homo sapiens, UniProt P00740); assay: Inhibition of coagulation factor 9a (unknown origin)
Coagulation factor IX, sequence (P00740 47-191 limits assumed): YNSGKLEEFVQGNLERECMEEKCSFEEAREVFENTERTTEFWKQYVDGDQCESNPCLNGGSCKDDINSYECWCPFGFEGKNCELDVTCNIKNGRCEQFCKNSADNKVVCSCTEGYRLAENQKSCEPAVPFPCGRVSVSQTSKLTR
Coagulation factor IX, sequence (P00740 227-461 limits assumed): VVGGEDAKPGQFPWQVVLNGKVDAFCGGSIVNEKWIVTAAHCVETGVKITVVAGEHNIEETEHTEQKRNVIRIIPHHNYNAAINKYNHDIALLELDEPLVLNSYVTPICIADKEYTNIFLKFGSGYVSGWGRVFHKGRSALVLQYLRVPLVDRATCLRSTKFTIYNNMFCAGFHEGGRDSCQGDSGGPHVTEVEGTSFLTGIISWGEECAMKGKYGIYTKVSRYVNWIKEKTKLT

Coagulation factor X = Coagulation factor X (Homo sapiens, UniProt P00742); assay: Inhibition of coagulation factor 10a (unknown origin)
Coagulation factor X, sequence (P00742 41-179 limits assumed): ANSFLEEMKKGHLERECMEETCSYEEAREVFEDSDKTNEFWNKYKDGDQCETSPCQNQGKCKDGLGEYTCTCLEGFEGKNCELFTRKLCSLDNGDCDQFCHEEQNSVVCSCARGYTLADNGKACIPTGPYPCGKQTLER
Coagulation factor X, sequence (P00742 235-488 limits assumed): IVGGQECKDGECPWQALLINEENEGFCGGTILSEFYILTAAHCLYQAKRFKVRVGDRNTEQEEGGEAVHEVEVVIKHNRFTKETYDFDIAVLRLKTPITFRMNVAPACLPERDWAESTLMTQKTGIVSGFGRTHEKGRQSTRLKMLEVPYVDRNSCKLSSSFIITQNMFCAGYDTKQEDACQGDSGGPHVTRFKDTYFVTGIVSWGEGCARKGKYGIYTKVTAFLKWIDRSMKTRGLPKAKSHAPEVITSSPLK

Prothrombin = Prothrombin (Homo sapiens, UniProt P00734); assay: Inhibition of thrombin (unknown origin)
Plasma kallikrein = Plasma kallikrein (Homo sapiens, UniProt P03952); assay: Inhibition of plasma kallikrein (unknown origin)
Plasma kallikrein, sequence (P03952 20-390 limits assumed): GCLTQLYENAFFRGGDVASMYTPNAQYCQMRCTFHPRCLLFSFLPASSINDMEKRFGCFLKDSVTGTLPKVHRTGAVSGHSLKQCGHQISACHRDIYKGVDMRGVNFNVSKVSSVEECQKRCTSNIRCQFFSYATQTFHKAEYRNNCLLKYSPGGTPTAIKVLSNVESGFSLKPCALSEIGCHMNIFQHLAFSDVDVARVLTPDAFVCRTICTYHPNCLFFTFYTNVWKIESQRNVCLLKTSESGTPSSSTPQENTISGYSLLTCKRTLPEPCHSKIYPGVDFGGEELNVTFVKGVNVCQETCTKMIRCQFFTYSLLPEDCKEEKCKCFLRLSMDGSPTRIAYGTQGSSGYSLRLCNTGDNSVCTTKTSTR
Plasma kallikrein, sequence (P03952 391-638 limits assumed): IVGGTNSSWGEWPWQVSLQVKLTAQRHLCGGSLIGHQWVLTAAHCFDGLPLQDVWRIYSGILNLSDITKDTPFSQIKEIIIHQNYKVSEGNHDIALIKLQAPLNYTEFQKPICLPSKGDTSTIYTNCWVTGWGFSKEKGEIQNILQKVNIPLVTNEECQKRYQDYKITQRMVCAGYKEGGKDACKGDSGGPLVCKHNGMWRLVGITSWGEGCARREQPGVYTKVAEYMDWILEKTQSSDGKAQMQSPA

Kallikrein-1 = Kallikrein-1 (Homo sapiens, UniProt P06870); assay: Inhibition of tissue kallikrein (unknown origin)
Kallikrein-1, sequence (P06870 whole entry): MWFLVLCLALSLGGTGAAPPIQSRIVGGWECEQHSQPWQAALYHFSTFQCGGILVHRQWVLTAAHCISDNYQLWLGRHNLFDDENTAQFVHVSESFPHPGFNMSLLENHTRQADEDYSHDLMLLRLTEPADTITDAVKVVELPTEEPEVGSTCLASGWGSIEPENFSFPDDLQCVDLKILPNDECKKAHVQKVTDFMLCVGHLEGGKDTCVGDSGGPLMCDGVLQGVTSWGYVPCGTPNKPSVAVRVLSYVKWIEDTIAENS

[9] = Inhibition of chymotrypsin (unknown origin); parameters: species or system Homo sapiens
Plasminogen = Plasminogen (Homo sapiens, UniProt P00747); assay: Inhibition of plasmin (unknown origin)
Plasminogen, sequence (P00747 97-580 limits assumed): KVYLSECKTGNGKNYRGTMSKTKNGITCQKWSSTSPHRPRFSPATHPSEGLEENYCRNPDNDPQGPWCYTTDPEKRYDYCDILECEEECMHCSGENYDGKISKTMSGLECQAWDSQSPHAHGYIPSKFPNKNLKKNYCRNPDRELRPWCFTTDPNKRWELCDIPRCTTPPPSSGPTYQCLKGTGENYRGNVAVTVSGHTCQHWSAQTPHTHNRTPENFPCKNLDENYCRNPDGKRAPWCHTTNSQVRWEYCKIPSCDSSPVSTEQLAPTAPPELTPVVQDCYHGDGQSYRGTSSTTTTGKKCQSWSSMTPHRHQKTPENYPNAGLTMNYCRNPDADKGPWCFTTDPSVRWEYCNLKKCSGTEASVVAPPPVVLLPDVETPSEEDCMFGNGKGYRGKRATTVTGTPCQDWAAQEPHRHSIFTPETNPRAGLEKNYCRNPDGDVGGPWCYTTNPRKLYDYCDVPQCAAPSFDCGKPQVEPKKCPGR
Plasminogen, sequence (P00747 581-810 limits assumed): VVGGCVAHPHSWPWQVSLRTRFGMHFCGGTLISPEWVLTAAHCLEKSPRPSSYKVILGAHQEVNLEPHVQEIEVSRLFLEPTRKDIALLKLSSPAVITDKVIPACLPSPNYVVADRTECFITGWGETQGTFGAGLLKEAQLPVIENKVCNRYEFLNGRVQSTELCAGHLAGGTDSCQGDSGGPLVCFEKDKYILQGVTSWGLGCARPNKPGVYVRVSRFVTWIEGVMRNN

[10] = target: Tissue-type plasminogen activator (Homo sapiens, UniProt P00750); assay: Inhibition of TPA (unknown origin)
Tissue-type plasminogen activator, sequence (P00750 whole entry): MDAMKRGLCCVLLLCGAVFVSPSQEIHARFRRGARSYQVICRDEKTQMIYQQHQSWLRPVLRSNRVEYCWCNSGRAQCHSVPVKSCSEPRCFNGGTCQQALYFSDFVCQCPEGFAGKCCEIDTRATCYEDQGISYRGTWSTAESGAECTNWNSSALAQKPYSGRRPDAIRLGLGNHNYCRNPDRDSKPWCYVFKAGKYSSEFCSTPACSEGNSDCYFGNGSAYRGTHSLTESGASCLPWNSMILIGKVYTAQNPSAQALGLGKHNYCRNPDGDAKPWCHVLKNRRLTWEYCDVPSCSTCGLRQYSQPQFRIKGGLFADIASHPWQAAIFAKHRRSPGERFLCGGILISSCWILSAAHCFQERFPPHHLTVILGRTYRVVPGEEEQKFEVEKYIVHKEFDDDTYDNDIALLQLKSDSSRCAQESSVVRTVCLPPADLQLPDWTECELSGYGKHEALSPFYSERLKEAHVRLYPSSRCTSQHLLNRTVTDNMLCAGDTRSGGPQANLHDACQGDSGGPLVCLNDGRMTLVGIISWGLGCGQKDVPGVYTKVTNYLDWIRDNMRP

[11] = Clearance in dog at 1 mg/kg, po or 0.4 mg/kg, iv administered in discrete format; format: ADME, organism-based, Canis lupus familiaris; conditions: in vivo
[12] = Volume of distribution at steady state in dog at 1 mg/kg, po or 0.4 mg/kg, iv administered in discrete format; format: ADME, organism-based, Canis lupus familiaris; conditions: in vivo, read-out: Vdss
[13] = Half life in dog at 1 mg/kg, po or 0.4 mg/kg, iv administered in discrete format; format: ADME, organism-based, Canis lupus familiaris; conditions: in vivo
[14] = Oral bioavailability in dog at 1 mg/kg administered in discrete format; format: ADME, organism-based, Canis lupus familiaris; conditions: in vivo

T1 sequence (P03951 19-387 limits assumed): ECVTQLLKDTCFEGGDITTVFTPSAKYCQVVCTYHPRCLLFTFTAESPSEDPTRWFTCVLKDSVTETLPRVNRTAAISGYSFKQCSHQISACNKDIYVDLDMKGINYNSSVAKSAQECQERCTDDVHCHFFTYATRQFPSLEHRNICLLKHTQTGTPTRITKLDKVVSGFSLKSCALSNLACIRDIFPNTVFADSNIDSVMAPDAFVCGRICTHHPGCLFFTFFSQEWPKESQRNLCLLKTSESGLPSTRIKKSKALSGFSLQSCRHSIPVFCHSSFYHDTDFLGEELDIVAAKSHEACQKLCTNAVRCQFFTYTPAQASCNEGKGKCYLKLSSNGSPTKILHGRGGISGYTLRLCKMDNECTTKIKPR
T1 sequence (P03951 388-625 limits assumed): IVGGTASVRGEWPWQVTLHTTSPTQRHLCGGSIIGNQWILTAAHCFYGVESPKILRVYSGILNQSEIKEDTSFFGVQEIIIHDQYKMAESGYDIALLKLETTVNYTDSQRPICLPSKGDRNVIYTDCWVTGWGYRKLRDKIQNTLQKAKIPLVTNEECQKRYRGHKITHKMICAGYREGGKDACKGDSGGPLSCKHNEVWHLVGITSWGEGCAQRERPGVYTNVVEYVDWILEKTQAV

Structure (SMILES) | Ki (Coagulation factor XI [1]) [µM] | Ki (Trypsin) [µM] | clearance [2] [L/h/kg] | Vd [3] [L/kg] | half-life [4] [h] | further results
Cc1ccc(C(=O)N[C@@H](Cc2ccccc2)c2nc(-c3ccc4c(N)n[nH]c4c3)c(Cl)[nH]2)cc1 | 0.39 | > 5 | – | – | – | –
Nc1n[nH]c2cc(C(=O)N[C@@H](Cc3ccccc3)c3nc(-c4ccc5c(N)n[nH]c5c4)c(Cl)[nH]3)ccc12 | 0.058 | 1.4 | – | – | – | –
COC(=O)Nc1ccc(-c2nc([C@H](Cc3ccccc3)NC(=O)/C=C/c3cc(Cl)ccc3-n3cnnn3)[nH]c2Cl)cc1 | 0.0027 | – | 0.54 | 1.6 | 3.1 | bioavailability [5]: 3%; Activity (Plasma): 5.3 µM; half-life [6]: 0.55 h
Nc1n[nH]c2cc(-c3c[nH]c([C@H](Cc4ccccc4)NC(=O)/C=C/c4cc(Cl)ccc4-n4cnnn4)n3)ccc12 | – | – | – | – | – | Activity (Plasma): 4 µM; Ki (Coagulation factor XI [7]): 0.005 µM
Nc1n[nH]c2cc(-c3nc([C@H](Cc4ccccc4)NC(=O)[C@H]4CC[C@H](C(N)=O)CC4)[nH]c3Cl)ccc12 | 2.9 | > 5 | – | – | – | –
Nc1n[nH]c2cc(-c3nc([C@H](Cc4ccccc4)NC(=O)NCc4cccc(Cl)c4)[nH]c3Cl)ccc12 | 0.054 | – | – | – | – | –
Nc1n[nH]c2cc(-c3nc([C@H](Cc4ccccc4)NC(=O)c4ccc5c(N)noc5c4)[nH]c3Cl)ccc12 | 0.125 | > 5 | – | – | – | –
Cc1ccc(Cl)cc1CNC(=O)N[C@@H](Cc1ccccc1)c1nc(-c2ccc3c(N)n[nH]c3c2)c(Cl)[nH]1 | 0.053 | – | – | – | – | –
Nc1n[nH]c2cc(-c3nc([C@H](Cc4ccccc4)NC(=O)NCc4cc(Cl)ccc4C(F)(F)F)[nH]c3Cl)ccc12 | 0.24 | – | – | – | – | –
Nc1nccc2c1CCC(C(=O)N[C@@H](Cc1ccccc1)c1nc(-c3ccc4c(N)n[nH]c4c3)c(Cl)[nH]1)C2 (stereo in doubt; 6) | 0.00215 | 1.43 | – | – | – | –
NCc1ccc(Cl)cc1CNC(=O)N[C@@H](Cc1ccccc1)c1nc(-c2ccc3c(N)n[nH]c3c2)c(Cl)[nH]1 | 0.0058 | – | – | – | – | Activity (Plasma): 3.9 µM
COc1ccc(C(=O)N[C@@H](Cc2ccccc2)c2nc(-c3ccc4c(N)n[nH]c4c3)c(Cl)[nH]2)c(F)c1 | 0.28 | > 6 | – | – | – | –
NCC12CCC(C(=O)N[C@@H](Cc3ccccc3)c3nc(-c4ccc5c(N)n[nH]c5c4)c(Cl)[nH]3)(CC1)CC2 | 0.00149 | 1.04 | – | – | – | –
COc1cc(F)c(C(=O)N[C@@H](Cc2ccccc2)c2nc(-c3ccc4c(N)n[nH]c4c3)c(Cl)[nH]2)c(F)c1 | 0.065 | > 6 | 0.912 | 1.3 | 1.2 | Papp [8]: 234 nm/s; bioavailability [5]: 49%
C[C@H]1CC[C@H](C(=O)N[C@@H](Cc2ccccc2)c2nc(-c3ccc4c(N)n[nH]c4c3)c(Cl)[nH]2)CC1 | 0.068 | > 6 | 0.924 | 0.9 | 1.5 | Papp [8]: 4.6 nm/s; bioavailability [5]: < 1%
Nc1n[nH]c2cc(-c3nc([C@H](Cc4ccccc4)NC(=O)NCc4cc(Cl)ccc4F)[nH]c3Cl)ccc12 | 0.031 | – | – | – | – | –
COC(=O)Nc1ccc(-c2c[nH]c([C@H](Cc3ccccc3)NC(=O)/C=C/c3cc(Cl)ccc3-n3cnnn3)n2)cc1 | 0.0067 | > 6.2 | – | 3.4 | 2.4 | Ki (Coagulation factor VII): > 13 µM; Ki (Coagulation factor IX): > 60 µM; Ki (Coagulation factor X): 1.5 µM; Ki (Prothrombin): > 15 µM; Ki (Plasma kallikrein): 0.24 µM; Ki (Kallikrein-1): > 30 µM; Ki [9]: 1.3 µM; Ki (Plasminogen): > 41 µM; Ki [10]: 17 µM; bioavailability [5]: 10.4%; Activity (Plasma): 8.6 µM
Cc1ccc(C(=O)N[C@@H](Cc2ccccc2)c2nc(-c3ccc4c(N)n[nH]c4c3)c(Cl)[nH]2)c(F)c1 | 0.2 | > 5 | 0.54 | 1.9 | 1.8 | Papp [8]: 547 nm/s; bioavailability [5]: 30%

Structure (SMILES) | Ki (Coagulation factor XI [1]) [µM] | Ki (Trypsin) [µM] | clearance [2] [L/h/kg] | Vd [3] [L/kg] | half-life [4] [h] | further results
Nc1n[nH]c2cc(-c3nc([C@H](Cc4ccccc4)NC(=O)NCc4cccc(Cl)c4F)[nH]c3Cl)ccc12 | 0.057 | – | – | – | – | –
Nc1n[nH]c2cc(-c3nc([C@H](Cc4ccccc4)NC(=O)NCc4cc(Cl)ccc4-n4cnnn4)[nH]c3Cl)ccc12 | 0.0015 | – | 1.87 | 1.4 | 2.1 | bioavailability [5]: 0%; Activity (Plasma): 1.8 µM; half-life [6]: < 0.0167 h
COC(=O)Nc1ccc(-c2nc([C@H](Cc3ccccc3)NC(=O)CCc3cc(Cl)ccc3-n3cnnn3)[nH]c2Cl)cc1 | 0.0019 | – | 2.3 | 4.4 | 2.6 | Activity (Plasma): 5.2 µM
Nc1nccc2c1CCC(C(=O)N[C@@H](Cc1ccccc1)c1nc(-c3ccc4c(N)n[nH]c4c3)c(Cl)[nH]1)C2 (single isomer, unassigned; diastereomer B) | 0.0025 | 0.36 | – | – | – | –
NCc1ccc(C(=O)N[C@@H](Cc2ccccc2)c2nc(-c3ccc4c(N)n[nH]c4c3)c(Cl)[nH]2)c(F)c1 | 0.00103 | 0.058 | – | – | – | –
Nc1n[nH]c2cc(-c3nc([C@H](Cc4ccccc4)NC(=O)NCc4cc(Cl)ccc4-n4cccn4)[nH]c3Cl)ccc12 | 0.45 | – | – | – | – | half-life [6]: < 0.0167 h
NC(=O)c1ccc(C(=O)N[C@@H](Cc2ccccc2)c2nc(-c3ccc4c(N)n[nH]c4c3)c(Cl)[nH]2)cc1 | 0.31 | > 5 | 0.75 | 1.5 | 1.4 | bioavailability [5]: 26%
Nc1nccc2c1CCC(C(=O)N[C@@H](Cc1ccccc1)c1nc(-c3ccc4c(N)n[nH]c4c3)c(Cl)[nH]1)C2 (single isomer, unassigned; diastereomer A) | 0.0026 | 2.8 | 2.09 | 2.8 | 2.3 | Papp [8]: 1.5 nm/s; bioavailability [5]: < 2%
Nc1n[nH]c2cc(-c3nc([C@H](Cc4ccccc4)NC(=O)NCc4cc(Cl)ccc4-n4cncn4)[nH]c3Cl)ccc12 | 0.046 | – | – | – | – | Activity (Plasma): 34 µM; half-life [6]: < 0.0167 h
Nc1n[nH]c2cc(-c3nc([C@H](Cc4ccccc4)NC(=O)NCc4c(F)ccc(Cl)c4F)[nH]c3Cl)ccc12 | 0.023 | – | – | – | – | –
Nc1n[nH]c2cc(-c3nc([C@H](Cc4ccccc4)NC(=O)c4cc(Cl)ccc4F)[nH]c3Cl)ccc12 | 0.53 | > 5 | – | – | – | –
NC[C@H]1CC[C@H](C(=O)N[C@@H](Cc2ccccc2)c2nc(-c3ccc4c(N)n[nH]c4c3)c(Cl)[nH]2)CC1 | 0.00031 | – | – | – | – | Ki (Kallikrein-1): 0.65 µM; Ki [9]: > 20.8 µM; Ki (Plasminogen): 8.4 µM; Ki [10]: > 22 µM; Papp [8]: 0.3 nm/s; clearance [11]: 0.672 L/h/kg; Vd [12]: 0.92 L/kg; half-life [13]: 1.88 h; bioavailability [14]: 3.6%
NCc1ccc(C(=O)N[C@@H](Cc2ccccc2)c2nc(-c3ccc4c(N)n[nH]c4c3)c(Cl)[nH]2)cc1 | 0.00116 | 0.059 | – | – | – | –
Nc1nccc2cc(C(=O)N[C@@H](Cc3ccccc3)c3nc(-c4ccc5c(N)n[nH]c5c4)c(Cl)[nH]3)ccc12 | 0.019 | 0.38 | 2.97 | 1 | 0.14 | Papp [8]: 38 nm/s; bioavailability [5]: < 2%
Nc1n[nH]c2cc(-c3nc([C@H](Cc4ccccc4)NC(=O)/C=C/c4cc(Cl)ccc4-n4cnnn4)[nH]c3Cl)ccc12 | 0.0012 | > 6.2 | 0.96 | 0.8 | 2.2 | Ki (Coagulation factor VII): > 13 µM; Ki (Coagulation factor IX): > 35 µM; Ki (Coagulation factor X): > 1 µM; Ki (Prothrombin): > 13 µM; Ki (Plasma kallikrein): 0.041 µM; Ki (Kallikrein-1): 1.2 µM; Ki [9]: 0.66 µM; Ki (Plasminogen): > 24 µM; Ki [10]: 19 µM; bioavailability [5]: 0%; Activity (Plasma): 3 µM
COC(=O)Nc1ccc(-c2nc([C@H](Cc3ccccc3)NC(=O)NCc3cc(Cl)ccc3-n3cnnn3)[nH]c2Cl)cc1 | 0.0034 | – | 2.07 | 2.8 | 2.8 | Activity (Plasma): 5.6 µM; half-life [6]: < 0.0167 h
COc1ccc(Cl)cc1CNC(=O)N[C@@H](Cc1ccccc1)c1nc(-c2ccc3c(N)n[nH]c3c2)c(Cl)[nH]1 | 0.075 | – | – | – | – | –
